Experimental data reported in patent US20100158808A1, “Altered Activity of Toll-Like Receptors” (priority 2003, published 2010).

Experiments:
CD86 = CD86 expression in spleen after injection into the spleens of mice; format: in vivo; conditions: for Expression of CD86 in the spleen: injection into spleen of mice
Experimental: Surgical Procedures and Immunohistochemistry. Mice were anesthetized and the spleen was directly visualized through an incision in the lateral abdominal wall. Particular substances in […] of PBS were injected into the spleen. Spleens were harvested after 12 hours and sections were frozen in liquid nitrogen. Tissue sections were prepared and stained as described in (Dempsey et al. supra) with the following modifications. Secondary detection antibodies were diluted in M.O.M. diluent (Vector Laboratories, Burlingame, Calif.) and preabsorbed with mouse serum (Jackson ImmunoResearch Laboratories, West Grove, Pa.). Fluorescent images were converted to grayscale using SPOT software (Diagnostic Instruments, Sterling Heights, Mich.).
To determine whether elastase activity on ECM activates TLR4 responses in living tissues, elastase was injected into the spleens of mice. Such treatment typically causes rapid shedding of HS proteoglycans from the tissue, especially from blood vessels (Johnson et al. (2004) J. Immunol. (Cutting Edge) 172:20-24). The spleens were removed and examined for expression of CD86, a protein expressed in response to TLR4 signaling (Kaisho and Akira (2002) Biochim. Biophys. Acta 1589:1-13). […] In contrast, the expression of CD86 observed in leukocytes detached from ECM and stimulated with LPS or HS is considerably heightened (Johnson et al. supra). […] The changes in CD86 expression induced by elastase required TLR4, as the increase in CD86 was not observed when elastase was injected into spleens of mice lacking TLR4 function. Thus, the ECM may limit TLR4 signaling in vivo, and cleavage of ECM can trigger TLR4 signaling in living tissues.

mice = experiment: Experimental shock model (SIRS), D-galactosamine, i.p. injection; format: in vivo; conditions: for Death / SIRS in shock model: TLR4-mutant mice; for Death / SIRS in shock model / Death in shock model: i.p. with D-galactosamine; for Death in shock model: TLR4 wild-type mice
Experimental: Experimental shock model. Age- and sex-matched mice were injected with 5 mg of HS, 5 μg of LPS, 5 μg of Limulus anti-LPS factor, 5 mg of chondroitin sulfate, 200 U (−5 mg) heparin, 150 μg of CpG DNA, 1.5 U of elastase, or PBS mixed with 20 mg of D-galactosamine in a total volume of 500 μl of PBS by i.p. injection as previously described (Franks et al. (1991) Infect. Immun. 59:2609). Concentrations of HS and elastase were calculated by weight of lyophilized powder, and the doses used were near the LD50 based on dose-response experiments. In some experiments, the agonist was mixed with 5 or 20 μg of Limulus anti-LPS factor before injection. For some injections, enzymes were boiled at 100° C. for 60 minutes and vortexed vigorously, or preincubated with elastase inhibitor-1 for 4 hours at room temperature and then mixed with D-galactosamine before injection. Mice were monitored every hour for 48 hours and then euthanized.
During sepsis, Gram-negative bacteria shed LPS, which activates TLR4 on cells that then release inflammatory cytokines mediating systemic inflammation and death (Beutler (2000) Curr. Opin. Immunol. 12:20). To determine whether soluble HS can induce a model of systemic inflammatory response syndrome (SIRS) via activation of TLR4 in mice, HS was administered by i.p. injection to TLR4 wild type and mutant mice. This mouse model system has been used to study shock and a sepsis-like syndrome in response to microbial toxins (Galanos et al. (1979) Proc. Natl. Acad. Sci. USA 76:5939). […] Moreover, the observed responses were not due to contamination of HS by LPS, since the HS used was not contaminated with LPS.

TLR4/MD2 complex = target: T1, TLR4/MD2 complex (Mus musculus, UniProt Q9JHF9+Q9QUK6); experiment: Cell surface expression of TLR4/MD2 in HEK/TLR4(+) cells by flow cytometry; format: cell-based, murine
T1 construct: expressed in transfected cells; host or cells: HEK 293 clone HEK/TLR4(+)
T1 sequence (Q9QUK6 26-835): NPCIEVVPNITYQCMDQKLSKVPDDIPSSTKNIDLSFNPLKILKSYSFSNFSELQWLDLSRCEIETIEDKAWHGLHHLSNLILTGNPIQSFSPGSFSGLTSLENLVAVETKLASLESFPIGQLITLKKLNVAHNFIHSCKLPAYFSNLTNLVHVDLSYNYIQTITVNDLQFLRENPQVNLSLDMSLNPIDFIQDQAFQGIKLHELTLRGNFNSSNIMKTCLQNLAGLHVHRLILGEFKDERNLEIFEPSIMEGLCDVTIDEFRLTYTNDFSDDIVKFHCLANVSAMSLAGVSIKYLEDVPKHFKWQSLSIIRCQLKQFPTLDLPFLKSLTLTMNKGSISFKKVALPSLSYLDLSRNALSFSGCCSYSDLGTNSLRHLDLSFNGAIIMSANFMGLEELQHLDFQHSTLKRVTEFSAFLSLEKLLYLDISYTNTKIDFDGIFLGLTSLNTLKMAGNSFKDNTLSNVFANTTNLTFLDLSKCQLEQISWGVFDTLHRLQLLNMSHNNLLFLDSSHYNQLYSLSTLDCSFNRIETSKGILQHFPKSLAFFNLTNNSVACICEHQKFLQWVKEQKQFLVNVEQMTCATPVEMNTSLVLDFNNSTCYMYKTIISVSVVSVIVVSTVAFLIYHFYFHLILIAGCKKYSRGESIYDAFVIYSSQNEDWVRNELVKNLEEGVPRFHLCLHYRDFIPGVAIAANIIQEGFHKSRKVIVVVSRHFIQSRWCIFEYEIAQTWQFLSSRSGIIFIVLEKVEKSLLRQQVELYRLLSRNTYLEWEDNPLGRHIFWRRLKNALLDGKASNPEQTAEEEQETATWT
T1 sequence (Q9JHF9 19-160): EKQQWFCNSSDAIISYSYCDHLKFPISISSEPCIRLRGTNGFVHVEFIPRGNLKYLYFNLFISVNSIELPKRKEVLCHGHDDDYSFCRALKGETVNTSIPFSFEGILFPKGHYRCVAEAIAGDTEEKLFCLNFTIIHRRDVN
Experimental: FIG. 2A is a graph plotting the level of reporter activity in HEK/TLR4(+) cells transfected with NFκB- and control-luciferase reporter plasmids and then stimulated with intact HS or LPS, or with HS or LPS that had been treated with nitrous acid (HNO2) at pH 4.0 or pH 1.5. Controls were treated with PBS vehicle. […] FIG. 2C is a graph showing the effect of PBS, HS, depolymerized HS (nitrous acid, pH 1.5), and recombinant human IL-1α on cell surface expression of TLR4/MD2 in HEK/TLR4(+) cells. Expression of TLR4 on the cell surface was determined by flow cytometry using a monoclonal antibody specific to the TLR4/MD2 complex. Values are the mean of triplicate wells and are representative of three separate experiments.
To determine whether the effect of HS occurred through specific action on TLR4, surface expression of the TLR4/MD2 complex on cells treated with HS was examined. […] Thus, HEK/TLR4(+) cells responded to HS by activating NFκB and mobilizing receptor complexes.

Substance | Expression of CD86 in the spleen (CD86) | Increase in CD86 in the spleen (CD86; mice lacking TLR4 function) | Death / SIRS in shock model (mice) | Percent death after injection of elastase in SIRS shock model, TLR4 Mutant (%) (mice; TLR4 mutant mice) | Percent death after injection of elastase in SIRS shock model, TLR4 Wild Type (%) (mice; TLR4 wild type mice) | Death in shock model (mice) | Decrease in surface expression of TLR4/MD2 (TLR4/MD2 complex) [%] | Change in surface expression of TLR4/MD2 (TLR4/MD2 complex)
elastase: pancreatic elastase (Calbiochem; type IV porcine pancreatic elastase, Sigma-Aldrich), protease that cleaves ECM proteins | profoundly increased | not observed | no TLR4 mutant mice died | 0 | 50 | Fifty percent | – | –
heparan sulfate [HS] | modestly increased | – | no TLR4-mutant mice injected with HS died | – | – | eighty percent | 60 | –
lipopolysaccharide [LPS] | modestly increased | – | – | – | – | died | – | a decrease similar to that induced by LPS
